# Assay results reported in ChEMBL document CHEMBL1909046, “DrugMatrix in vitro pharmacology data”.
# What was measured:
# [1] = DRUGMATRIX: Sodium/nucleoside co-transporter radioligand binding (ligand: nitrobenzylthioinosine); type: cell membranes, Cavia porcellus, Dunkin-Hartley, Cerebral cortex, Membrane; settings: Not Active = under 50% inhibition at 10 µM
# [2] = target: Vascular endothelial growth factor receptor 1 (Homo sapiens, UniProt P17948); type: cell-based; settings: huvec; note: in other assays of this panel Not Active means under 50% inhibition at 10 µM
# Leukotriene C4 synthase = target: T1, Leukotriene C4 synthase (Cavia porcellus, UniProt A6XA80); experiment: biochemical; type: tissue-based, Lung;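 note: enzyme inhibition assay of leukotriene C4 synthase, using LTA4 as the substrate; in other assays of this panel Not Active means under 50% inhibition at 10 µM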
# T1 sequence (A6XA80 whole entry): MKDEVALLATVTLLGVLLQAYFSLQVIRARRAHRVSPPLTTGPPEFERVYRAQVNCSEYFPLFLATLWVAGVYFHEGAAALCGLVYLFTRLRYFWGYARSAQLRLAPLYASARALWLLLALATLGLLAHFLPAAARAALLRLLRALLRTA
# Melanocortin receptor 4 = Melanocortin receptor 4 (Homo sapiens, UniProt P32245); type: cell membranes, Membrane; settings: hek293; note: in other assays of this panel Not Active means under 50% inhibition at 10 µM
# [3] = DRUGMATRIX: Phosphodiesterase PDE3 enzyme inhibition (substrate: [3H]cAMP + cAMP); type: tissue-based, Homo sapiens; settings: platelet, Not Active = under 50% inhibition at 10 µM
# [4] = target: Matrix metalloproteinase-9 (Homo sapiens, UniProt P14780); type: cell-based;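 note: inhibition of isolated MMP-9 enzyme activity toward a synthetic peptide substrate, from the DrugMatrix protease screening panel; in other assays of this panel Not Active means under 50% inhibition at 10 µM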
# Adenosine receptor A1 = target: T2, Adenosine receptor A1 (Homo sapiens, UniProt P30542); type: cell membranes, CHO, Membrane; settings: cho
# T2 sequence (P30542 whole entry): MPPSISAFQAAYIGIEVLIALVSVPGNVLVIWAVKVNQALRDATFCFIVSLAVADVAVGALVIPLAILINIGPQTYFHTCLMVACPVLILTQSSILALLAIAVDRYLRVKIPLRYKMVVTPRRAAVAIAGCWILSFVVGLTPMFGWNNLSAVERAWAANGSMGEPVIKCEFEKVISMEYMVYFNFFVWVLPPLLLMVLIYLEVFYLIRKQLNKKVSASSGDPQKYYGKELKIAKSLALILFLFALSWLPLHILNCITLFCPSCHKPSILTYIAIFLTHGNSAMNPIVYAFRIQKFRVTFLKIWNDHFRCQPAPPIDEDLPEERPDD
# Vascular endothelial growth factor receptor 1, sequence (P17948 whole entry): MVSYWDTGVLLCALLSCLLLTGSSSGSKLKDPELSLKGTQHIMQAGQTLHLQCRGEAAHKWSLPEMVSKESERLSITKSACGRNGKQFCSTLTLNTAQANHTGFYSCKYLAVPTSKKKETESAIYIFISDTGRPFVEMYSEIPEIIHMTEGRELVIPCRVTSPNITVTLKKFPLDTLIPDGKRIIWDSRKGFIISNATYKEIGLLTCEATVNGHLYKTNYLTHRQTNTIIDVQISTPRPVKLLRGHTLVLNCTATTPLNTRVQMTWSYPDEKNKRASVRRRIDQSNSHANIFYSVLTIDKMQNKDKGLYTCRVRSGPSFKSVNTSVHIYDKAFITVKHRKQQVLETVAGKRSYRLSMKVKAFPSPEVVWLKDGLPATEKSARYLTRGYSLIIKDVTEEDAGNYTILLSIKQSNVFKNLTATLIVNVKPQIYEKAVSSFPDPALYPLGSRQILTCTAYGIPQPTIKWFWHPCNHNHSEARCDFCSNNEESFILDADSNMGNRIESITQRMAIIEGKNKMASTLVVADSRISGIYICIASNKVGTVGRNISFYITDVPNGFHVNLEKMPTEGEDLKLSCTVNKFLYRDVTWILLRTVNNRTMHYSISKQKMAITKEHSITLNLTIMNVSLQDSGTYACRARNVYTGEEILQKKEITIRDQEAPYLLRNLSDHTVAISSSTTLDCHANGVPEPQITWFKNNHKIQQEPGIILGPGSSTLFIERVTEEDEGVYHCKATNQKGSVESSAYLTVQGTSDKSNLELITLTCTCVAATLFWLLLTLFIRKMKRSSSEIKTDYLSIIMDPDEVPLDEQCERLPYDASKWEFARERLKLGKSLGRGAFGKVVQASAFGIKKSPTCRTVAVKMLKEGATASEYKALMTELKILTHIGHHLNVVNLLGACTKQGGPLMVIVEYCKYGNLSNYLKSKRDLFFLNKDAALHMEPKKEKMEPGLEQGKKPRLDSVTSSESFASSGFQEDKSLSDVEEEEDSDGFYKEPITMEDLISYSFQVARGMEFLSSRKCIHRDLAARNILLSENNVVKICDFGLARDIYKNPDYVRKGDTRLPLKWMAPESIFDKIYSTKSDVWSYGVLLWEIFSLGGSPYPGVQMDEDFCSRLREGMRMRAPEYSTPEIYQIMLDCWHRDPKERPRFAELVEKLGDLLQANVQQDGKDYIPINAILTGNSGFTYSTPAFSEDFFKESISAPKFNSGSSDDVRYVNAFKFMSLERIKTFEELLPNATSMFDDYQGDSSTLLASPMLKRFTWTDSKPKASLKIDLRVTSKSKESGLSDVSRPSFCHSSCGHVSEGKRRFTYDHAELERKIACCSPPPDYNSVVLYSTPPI
# Melanocortin receptor 4, sequence (P32245 whole entry): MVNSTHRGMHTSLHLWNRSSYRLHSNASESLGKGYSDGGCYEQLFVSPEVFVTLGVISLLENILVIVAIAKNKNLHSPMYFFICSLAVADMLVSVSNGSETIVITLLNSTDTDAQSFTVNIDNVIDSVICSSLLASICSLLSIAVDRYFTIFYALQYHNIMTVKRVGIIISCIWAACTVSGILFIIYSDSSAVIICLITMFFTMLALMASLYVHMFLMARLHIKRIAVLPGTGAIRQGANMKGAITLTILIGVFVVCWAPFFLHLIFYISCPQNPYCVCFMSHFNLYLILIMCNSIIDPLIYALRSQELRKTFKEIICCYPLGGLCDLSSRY
# Matrix metalloproteinase-9, sequence (P14780 whole entry): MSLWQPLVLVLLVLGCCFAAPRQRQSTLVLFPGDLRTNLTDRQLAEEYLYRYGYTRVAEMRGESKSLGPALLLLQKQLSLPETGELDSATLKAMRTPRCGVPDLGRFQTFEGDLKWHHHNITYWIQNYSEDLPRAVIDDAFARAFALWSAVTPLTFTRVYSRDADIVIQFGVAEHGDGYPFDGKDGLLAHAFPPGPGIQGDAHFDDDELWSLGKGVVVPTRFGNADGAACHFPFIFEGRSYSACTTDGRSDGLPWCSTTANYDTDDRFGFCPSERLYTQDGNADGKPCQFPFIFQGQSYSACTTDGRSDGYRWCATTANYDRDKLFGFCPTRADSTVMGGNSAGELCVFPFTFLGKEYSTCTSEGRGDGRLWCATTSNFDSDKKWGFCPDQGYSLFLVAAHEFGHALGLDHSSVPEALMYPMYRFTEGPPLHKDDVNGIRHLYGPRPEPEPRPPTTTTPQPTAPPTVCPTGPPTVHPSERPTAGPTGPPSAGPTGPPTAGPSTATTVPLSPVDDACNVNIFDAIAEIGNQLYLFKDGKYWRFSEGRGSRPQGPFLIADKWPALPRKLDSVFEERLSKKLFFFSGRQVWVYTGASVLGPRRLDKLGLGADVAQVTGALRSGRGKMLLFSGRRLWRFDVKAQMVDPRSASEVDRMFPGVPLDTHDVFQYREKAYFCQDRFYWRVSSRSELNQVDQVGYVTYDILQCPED
Compound,IC50 [1],Ki [1],IC50 [2],IC50 (Leukotriene C4 synthase),IC50 (Melanocortin receptor 4),IC50 [3],Ki [3],IC50 [4],IC50 (Adenosine receptor A1),Ki [2],Ki (Leukotriene C4 synthase),Ki (Melanocortin receptor 4),Ki [4],Ki (Adenosine receptor A1),IC50 (Leukotriene C4 synthase; read-out: IC50) [nM],IC50 ([3]; read-out: IC50) [nM]
CCC(C)(C)C(=O)O[C@H]1C[C@@H](C)C=C2C=C[C@H](C)[C@H](CC[C@@H]3C[C@@H](O)CC(=O)O3)[C@H]21 [SIMVASTATIN],Not Active,Not Active,Not Active,Not Active,Not Active,Not Active,Not Active,Not Active,Not Active,,,,,,,
Cc1ccnc(NS(=O)(=O)c2ccc(N)cc2)n1 [SULFAMERAZINE],Not Active,Not Active,Not Active,Not Active,Not Active,Not Active,Not Active,Not Active,Not Active,,,,,,,
CCN(CC)N=O [N-NITROSODIETHYLAMINE],Not Active,Not Active,Not Active,Not Active,Not Active,Not Active,Not Active,Not Active,Not Active,,,,,,,
CC#C[C@]1(O)CC[C@H]2[C@@H]3CCC4=CC(=O)CCC4=C3[C@@H](c3ccc(N(C)C)cc3)C[C@@]21C [MIFEPRISTONE],Not Active,Not Active,Not Active,Not Active,Not Active,Not Active,Not Active,Not Active,Not Active,,,,,,,
LEAD(IV) ACETATE,Not Active,Not Active,Not Active,Not Active,Not Active,Not Active,Not Active,Not Active,Not Active,Not Active,Not Active,Not Active,Not Active,Not Active,,
O=C(OC[C@H]1O[C@@H](OC(=O)c2cc(O)c(O)c(OC(=O)c3cc(O)c(O)c(O)c3)c2)[C@H](OC(=O)c2cc(O)c(O)c(OC(=O)c3cc(O)c(O)c(O)c3)c2)[C@@H](OC(=O)c2cc(O)c(O)c(OC(=O)c3cc(O)c(O)c(O)c3)c2)[C@@H]1OC(=O)c1cc(O)c(O)c(OC(=O)c2cc(O)c(O)c(O)c2)c1)c1cc(O)c(O)c(OC(=O)c2cc(O)c(O)c(O)c2)c1 [TANNIC ACID],Not Active,Not Active,Not Active,,Not Active,,,Not Active,Not Active,,,,,,2720,714
Oc1ccc(/C=C/c2cc(O)cc(O)c2)cc1 [RESVERATROL],Not Active,Not Active,Not Active,Not Active,Not Active,Not Active,Not Active,Not Active,Not Active,,,,,,,
CC[C@@]1(O)C(=O)OCc2c1cc1n(c2=O)Cc2cc3c(CN(C)C)c(O)ccc3nc2-1 [TOPOTECAN],Not Active,Not Active,Not Active,Not Active,Not Active,Not Active,Not Active,Not Active,Not Active,,,,,,,
C=CCc1ccc2c(c1)OCO2 [SAFROLE],Not Active,Not Active,Not Active,Not Active,Not Active,Not Active,Not Active,Not Active,Not Active,,,,,,,
C1CCN2C[C@@H]3C[C@@H](CN4CCCC[C@@H]34)[C@H]2C1 [SPARTEINE],Not Active,Not Active,Not Active,Not Active,Not Active,Not Active,Not Active,Not Active,Not Active,,,,,,,
CC[C@H](C)C(=O)O[C@H]1CCC=C2C=C[C@H](C)[C@H](CC[C@@H]3C[C@@H](O)CC(=O)O3)[C@H]21 [MEVASTATIN],Not Active,Not Active,Not Active,Not Active,Not Active,Not Active,Not Active,Not Active,Not Active,,,,,,,
CS(=O)(=O)c1ccc(C2=C(c3ccccc3)C(=O)OC2)cc1 [ROFECOXIB],Not Active,Not Active,Not Active,Not Active,Not Active,Not Active,Not Active,Not Active,Not Active,,,,,,,
Cc1cn([C@H]2C=C[C@@H](CO)O2)c(=O)[nH]c1=O [STAVUDINE],Not Active,Not Active,Not Active,Not Active,Not Active,Not Active,Not Active,Not Active,Not Active,,,,,,,
Nc1nc(N)c2nc(-c3ccccc3)c(N)nc2n1,Not Active,Not Active,Not Active,Not Active,Not Active,Not Active,Not Active,Not Active,Not Active,,,,,,,
Cc1[nH]c(=O)c(C#N)cc1-c1ccncc1 [MILRINONE],Not Active,Not Active,Not Active,Not Active,Not Active,,,Not Active,Not Active,,,,,,,958
C[C@]12CCC(=O)C[C@@H]1CC[C@@H]1[C@@H]2CC[C@]2(C)[C@@H](O)CC[C@@H]12 [STANOLONE],Not Active,Not Active,Not Active,Not Active,Not Active,Not Active,Not Active,Not Active,Not Active,,,,,,,
CC1(C)[C@H](C(=O)O)N2C(=O)C[C@H]2S1(=O)=O [SULBACTAM],Not Active,Not Active,Not Active,Not Active,Not Active,Not Active,Not Active,Not Active,Not Active,,,,,,,
CCOC(=O)C1=C(C)NC(C)=C(C(=O)OCC)C1c1ccccc1/C=C/C(=O)OC(C)(C)C [LACIDIPINE],Not Active,Not Active,Not Active,Not Active,Not Active,Not Active,Not Active,Not Active,Not Active,,,,,,,
CC(N)C12CC3CC(CC(C3)C1)C2 (stereo not drawn) [RIMANTADINE],Not Active,Not Active,Not Active,Not Active,Not Active,Not Active,Not Active,Not Active,Not Active,,,,,,,
CO[C@@]12[C@H](COC(N)=O)C3=C(C(=O)C(C)=C(N)C3=O)N1C[C@@H]1N[C@@H]12 [MITOMYCIN],Not Active,Not Active,Not Active,Not Active,Not Active,Not Active,Not Active,Not Active,Not Active,,,,,,,
